Read-outs that look alike come from different tables or passages of the source.
Key:
[1] = monkey, cited from earlier work
[2] = monkeys, 3-month, co-administered with atorvastatin at doses producing modest ALT increases; cited from earlier work
[3] = Patient with chronically elevated liver enzymes and bilirubin treated with Praluent brand alirocumab; type: in vivo, human; details: middle age person
Description: A middle age person had chronically elevated AST, ALT and gamma glutamyl transferase and elevated bilirubin levels and clay colored stools. There was no viral hepatitis. […] The patient also felt less fatigued.

[4] = rat, in vivo; cited from earlier work
[5] = monkey, in vivo; cited from earlier work
[6] = humans administered alirocumab; cited from earlier work
CD81 [7] = test: CD81 expression in vivo in PCSK9-/- mice after alirocumab; details: after administering alirocumab
Method: (§1) CD81 expression in vivo in PCSK9−/−mice and in hyperlipidemic mice expressing human PCSK9 with reduced LDLR expression (PCSK9hum/hum/LDLR+/−) were tested after administering alirocumab; no changes in total CD81 levels were observed. […] Based on conflicting data, the relevant scientific literature is currently considered inadequate to conclusively address the potential impact of alirocumab on HCV infectivity. It should be noted that increased cell-surface LDLR has also been postulated to modulate HCV infectivity; statins, like alirocumab, increase cell-surface LDLR.

[8] = cited from earlier work
CD81 [9] = test: CD81 expression in vivo in hyperlipidemic PCSK9hum/hum/LDLR+/- mice after alirocumab; details: hyperlipidemic mice expressing human PCSK9 with reduced LDLR expression (PCSK9hum/hum/LDLR+/-), after administering alirocumab
Method: as §1

HCV = HCV infectivity and replication kinetics in vitro with extracellular PCSK9 in presence/absence of alirocumab; type: cell-based; details: addition of extracellular PCSK9 in the presence/absence of alirocumab
[10] = monkey, in vivo; cited from earlier work; remark: listed apart in the source
[11] = monkey, in vivo; cited from earlier work; remark: listed apart in the source
[12] = rat, in vivo; cited from earlier work; remark: listed apart in the source
[13] = chronically elevated, no viral hepatitis, after treatment for 1-2 months

Q: What does the source list for alirocumab?
A: sinusoidal cell defects in the liver (this phenomenon) ([1]; in vivo): not observed; HDL-C levels [1]: greatly reduced; liver toxicity [2]: not exacerbated; ALT [3, 13]: returned to normal; AST [3, 13]: returned to normal; gamma glutamyl transferase [3, 13]: returned to normal; bilirubin levels ([3]; elevated, after treatment for 1-2 months): returned to normal; fatigue ([3]; after treatment): less fatigued; clay colored stools ([3]; after treatment for 1-2 months): became normal; imbalances for infections [4]: no imbalances; imbalances for infections [5]: no imbalances; HDL-C [6]: not reduced; total CD81 levels (CD81 [7]): no changes; sinusoidal cell defects in the liver ([8]; rat, in vivo): sinusoidal cell defects were observed; HDL ([8]; rats administered alirocumab): low HDL; total CD81 levels (CD81 [9]): no changes; effects on HCV infectivity (HCV): No effects; effects on HCV replication kinetics (HCV): No effects; effects on T-cell dependent antibody response [10]: no effects; effects on cytotoxic T-cell activity [10]: no effects; effects on immune cell populations [10]: no effects; effects on natural killer cell activity [10]: no effects; alirocumab-related effects on peripheral neurons [11]: No significant alirocumab-related effects; alirocumab-related effects on peripheral neurons [12]: No significant alirocumab-related effects

Reference: patent publication US20200017603A1, “NOVEL USES OF PCSK9 INHIBITORS AND RELATED MEDICATIONS” (BHL PATENT HOLDINGS, LLC, priority 2016, published 2020)
